Reference: patent US10238649B2 (AB SCIENCE, priority 2012, dated 2019)

How the values were obtained:
[1] = system: patients with unresectable pancreatic cancer; conditions: Moore et al. 2007; cited from earlier work
[2] = system: patients with metastatic pancreatic cancer; conditions: first-line, Conroy et al. 2011; cited from earlier work
[3] = system: patients with locally advanced, unresectable, or metastatic pancreatic adenocarcinoma; conditions: single agent, randomized trials; cited from earlier work
[4] = system: patients with advanced/metastatic pancreatic cancer; test: Ancillary pharmacogenomic study of AB07012, overall survival by gene expression predictor factors; type: in vivo, human; conditions: full cohort with genomic information (n=119)
[5] = system: Ba/F3 cells expressing human or mouse wild-type c-Kit; conditions: read-out: IC50, stem cell factor-induced proliferation and c-Kit tyrosine phosphorylation; cited from earlier work
[6] = system: Ba/F3 cells expressing PDGFR-α; conditions: read-out: 1050, PDGF-BB-stimulated proliferation and PDGFR-α tyrosine phosphorylation; cited from earlier work
[7] = biological target: discoidin domain receptor family member 1 (DDR1) kinase (Homo sapiens, UniProt Q08345); conditions: cited from earlier work
Chain of discoidin domain receptor family member 1 (DDR1) kinase (Q08345 19-913, species assumed): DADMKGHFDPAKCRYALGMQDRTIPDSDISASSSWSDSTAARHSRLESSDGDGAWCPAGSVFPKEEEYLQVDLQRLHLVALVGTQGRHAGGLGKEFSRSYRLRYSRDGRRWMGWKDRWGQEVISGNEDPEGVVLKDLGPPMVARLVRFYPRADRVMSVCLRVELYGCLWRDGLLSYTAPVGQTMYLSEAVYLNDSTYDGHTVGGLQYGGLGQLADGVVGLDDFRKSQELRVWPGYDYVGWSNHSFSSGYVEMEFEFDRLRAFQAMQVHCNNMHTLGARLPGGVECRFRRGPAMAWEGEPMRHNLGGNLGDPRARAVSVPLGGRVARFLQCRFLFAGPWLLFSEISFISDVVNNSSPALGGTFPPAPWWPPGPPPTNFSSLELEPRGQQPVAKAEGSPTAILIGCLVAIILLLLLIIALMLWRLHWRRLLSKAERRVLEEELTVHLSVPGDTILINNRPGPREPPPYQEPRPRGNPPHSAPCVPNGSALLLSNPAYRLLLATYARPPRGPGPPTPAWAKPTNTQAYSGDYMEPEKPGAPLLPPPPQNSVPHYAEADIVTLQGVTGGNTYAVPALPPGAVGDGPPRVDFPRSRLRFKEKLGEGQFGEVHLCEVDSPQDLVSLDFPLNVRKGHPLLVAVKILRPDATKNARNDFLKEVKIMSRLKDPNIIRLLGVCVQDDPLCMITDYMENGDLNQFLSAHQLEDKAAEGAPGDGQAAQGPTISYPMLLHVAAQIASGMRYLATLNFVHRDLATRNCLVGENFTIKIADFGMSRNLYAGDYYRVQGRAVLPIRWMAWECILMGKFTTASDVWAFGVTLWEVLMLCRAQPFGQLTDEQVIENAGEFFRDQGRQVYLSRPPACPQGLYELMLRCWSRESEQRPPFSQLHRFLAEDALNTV

[8] = system: human cord blood mast cells; conditions: cited from earlier work

## Nc1ccn(C2OC(CO)C(O)C2(F)F)c(=O)n1 (stereo not shown) [gemcitabine, 4-amino-1-[3,3-difluoro-4-hydroxy-5-(hydroxymethyl)tetrahydrofuran-2-yl]-1H-pyrimidin-2-one]
[1]
  1-year survival rate: 17%
  median OS: 5.91 months
[2]
  objective response rate: 9.4%
  survival (months lived): 6.8 months
[3]
  12-month survival: approximately 20%
  median survival: approximately 6 months

## Cc1ccc(NC(=O)c2ccc(CN3CCN(C)CC3)cc2)cc1Nc1nc(-c2cccnc2)cs1 [masitinib, 4-(4-methylpiperazin-1-ylmethyl)-N-[4-methyl-3-(4-pyridin-3ylthiazol-2-ylamino)phenyl]benzamide]
[4]
  median OS: 7.7 months
[5]
  IC50: 150 ± 80 nM
[6]
  IC50: 300 ± 5 nM
[7]
  inhibition of DDR1 autophosphorylation: pronounced inhibition
[8]
  FcεRI-mediated degranulation of human cord blood mast cells: inhibition

## Folfirinox
[2]
  objective response rate: 31.6%
  survival (months lived): 11.1 months
